Experimental data taken from article PMC7801380, “Development of phenotypic assays for identifying novel blockers of L-type calcium channels in neurons” (Scientific Reports, 2021).
Read-outs that look alike come from different tables or passages of the source.

Tests used:
[1] = molecular target: DHP site; experiment: Rat cortex binding, DHP site ([3H]nitrendipine); conditions: [3H]nitrendipine 0.1 nM
Procedure: (§1) The in-vitro binding studies were conducted by Eurofins (France) using rat cortex. […] The IC50 values (the concentration that causes half-maximal inhibition of control specific binding) were determined by non-linear regression analysis of the competition curves using Hill equation: Y = […] Y = specific binding, A = left asymptote of the curve, D = right asymptote of the curve, C = compound concentration, and nH = slope factor. Analyses were performed using software developed at Eurofins (Hill software) and validated by comparison with data generated by the commercial software SigmaPlot 4.0. […] KD values were determined from Scatchard plots.

[2] = tested on: L-type calcium channels (LTCCs); experiment: Calcium flux (FLIPR) assay, Bay K8644-induced responses in rat primary cortical cultures; assay type: cell-based; conditions: for Block of Bay K8644-evoked calcium fluorescent response: compound 3 µM
[3] = molecular target: Phenylalkylamine site; experiment: Rat cortex binding, phenylalkylamine site ([3H]D888); conditions: [3H]D888 3 nM
Procedure: as §1

[4] = molecular target: Benzothiazepine site; experiment: Rat cortex binding, benzothiazepine site ([3H]diltiazem); conditions: [3H]diltiazem 15 nM
Procedure: as §1

[5] = tested on: LTCC currents; experiment: Patch clamp, LTCC currents in rat cortical neurons; assay type: cell-based
[6] = molecular target: CaV1.2 (Homo sapiens, UniProt Q13936); experiment: in vitro; conditions: pH 7.4
Chain of CaV1.2 (Q13936 1-2138 isoform Q13936-12): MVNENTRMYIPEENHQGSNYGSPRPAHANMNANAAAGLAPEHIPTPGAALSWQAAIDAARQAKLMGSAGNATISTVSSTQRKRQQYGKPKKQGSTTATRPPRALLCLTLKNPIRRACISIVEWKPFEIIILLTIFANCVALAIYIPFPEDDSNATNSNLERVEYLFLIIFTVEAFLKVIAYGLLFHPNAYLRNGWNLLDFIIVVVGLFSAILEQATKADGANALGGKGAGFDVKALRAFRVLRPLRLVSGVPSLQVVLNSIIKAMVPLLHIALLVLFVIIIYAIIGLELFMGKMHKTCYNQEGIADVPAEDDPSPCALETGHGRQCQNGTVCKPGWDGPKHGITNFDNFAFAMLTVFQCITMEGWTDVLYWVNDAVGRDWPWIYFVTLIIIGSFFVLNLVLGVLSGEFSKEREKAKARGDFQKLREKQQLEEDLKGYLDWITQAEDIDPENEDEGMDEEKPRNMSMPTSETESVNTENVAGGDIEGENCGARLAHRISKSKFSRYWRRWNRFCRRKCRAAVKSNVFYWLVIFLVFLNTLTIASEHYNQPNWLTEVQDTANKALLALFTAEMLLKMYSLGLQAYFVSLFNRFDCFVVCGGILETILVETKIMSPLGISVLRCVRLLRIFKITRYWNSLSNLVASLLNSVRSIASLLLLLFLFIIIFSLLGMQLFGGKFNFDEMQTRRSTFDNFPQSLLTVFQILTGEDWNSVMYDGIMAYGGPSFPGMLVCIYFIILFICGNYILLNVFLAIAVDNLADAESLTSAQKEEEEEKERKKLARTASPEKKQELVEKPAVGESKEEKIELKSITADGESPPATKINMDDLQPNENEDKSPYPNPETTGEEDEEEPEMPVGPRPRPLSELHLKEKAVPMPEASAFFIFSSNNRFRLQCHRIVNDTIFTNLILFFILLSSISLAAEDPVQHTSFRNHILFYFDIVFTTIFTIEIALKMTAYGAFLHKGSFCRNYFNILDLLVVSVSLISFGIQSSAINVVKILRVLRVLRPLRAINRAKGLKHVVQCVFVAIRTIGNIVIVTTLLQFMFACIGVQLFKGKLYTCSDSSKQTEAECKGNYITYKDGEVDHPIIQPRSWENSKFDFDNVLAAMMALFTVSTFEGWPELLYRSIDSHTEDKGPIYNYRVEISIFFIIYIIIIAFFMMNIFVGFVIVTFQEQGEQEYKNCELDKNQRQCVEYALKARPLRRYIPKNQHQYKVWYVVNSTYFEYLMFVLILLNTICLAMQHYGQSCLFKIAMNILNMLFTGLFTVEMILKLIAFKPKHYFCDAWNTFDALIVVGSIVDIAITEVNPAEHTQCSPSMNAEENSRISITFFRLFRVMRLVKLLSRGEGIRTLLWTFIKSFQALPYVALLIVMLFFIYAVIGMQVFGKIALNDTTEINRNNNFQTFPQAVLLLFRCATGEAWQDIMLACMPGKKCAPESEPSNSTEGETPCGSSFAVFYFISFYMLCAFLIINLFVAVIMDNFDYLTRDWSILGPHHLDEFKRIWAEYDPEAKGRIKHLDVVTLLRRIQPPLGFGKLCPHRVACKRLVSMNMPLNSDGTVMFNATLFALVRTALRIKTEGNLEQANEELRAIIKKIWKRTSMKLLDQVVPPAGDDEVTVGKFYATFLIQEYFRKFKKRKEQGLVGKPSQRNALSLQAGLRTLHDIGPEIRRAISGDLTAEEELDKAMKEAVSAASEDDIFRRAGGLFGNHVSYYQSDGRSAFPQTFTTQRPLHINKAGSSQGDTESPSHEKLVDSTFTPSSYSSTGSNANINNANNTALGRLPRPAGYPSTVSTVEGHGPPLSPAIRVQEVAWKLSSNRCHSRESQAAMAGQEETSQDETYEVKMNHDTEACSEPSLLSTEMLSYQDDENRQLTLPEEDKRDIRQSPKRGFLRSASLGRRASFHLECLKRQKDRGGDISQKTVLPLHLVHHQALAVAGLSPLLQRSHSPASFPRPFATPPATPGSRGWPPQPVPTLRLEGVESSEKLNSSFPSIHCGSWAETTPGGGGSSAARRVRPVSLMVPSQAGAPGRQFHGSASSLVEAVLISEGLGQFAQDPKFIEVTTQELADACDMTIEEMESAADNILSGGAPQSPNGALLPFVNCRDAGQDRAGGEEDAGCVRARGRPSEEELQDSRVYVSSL

[7] = tested on: VGCCs; experiment: Calcium fluorescent response to high [K+] in rat cortical cultures; assay type: cell-based; conditions: 100 mM K+, compound 3 µM, holding [K+] 20 mM
[8] = PW library screen hit confirmation, 1.1 µM Bay K8644, holding [K+] 20 mM, read-out: FLIPR IC50 Rat cortical culture
[9] = 300 nM Bay K8644, holding [K+] 20 mM, read-out: IC50, inhibition of Bay K-induced responses (calcium flux)
[10] = Vhold/Vtest -50/-20 mV, 300 nM Bay K8644
[11] = Vhold/Vtest -50/-20 mV, 300 nM Bay K8644, read-out: IC50, LTCC currents

Q: Which IC50 ([1]; n = 4, read-out: IC50 positive control, DHP site binding) does the source give for `CCOC(=O)C1=C(C)NC(C)=C(C(=O)OC)C1c1cccc([N+](=O)[O-])c1` (centres unmarked) [Nitrendipine] here?
A: 0.19 ± 0.03 nM

Q: What about the IC50 [2, 8] of the same molecule?
A: 140 nM

Q: For `CCOC(=O)C1=C(C)NC(C)=C(C(=O)OC)C1c1cccc(Cl)c1Cl` (centres unmarked) [Felodipine], which IC50 [2, 8] is on record?
A: 57 nM

Q: Which IC50 [2, 8] does the source give for `O=C1NCN(c2ccccc2)C12CCN(CCCC(c1ccc(F)cc1)c1ccc(F)cc1)CC2` [fluspirilene] here?
A: 760 nM

Q: Which IC50 ([3]; n = 4, read-out: IC50 positive control, phenylalkylamine site binding) does the source give for `COc1ccc(CCN(C)CCCC(C#N)(c2cc(OC)c(OC)c(OC)c2)C(C)C)cc1OC` (centres unmarked) [D600] here?
A: 26.8 ± 3.6 nM

Q: For `CC(NCCC(c1ccccc1)c1ccccc1)c1ccccc1` (centres unmarked) [fendiline], which IC50 [2, 8] is on record?
A: 820 nM

Q: With `COC(=O)C1=C(C)NC(C)=C(C(=O)OC2CCCN(Cc3ccccc3)C2)C1c1cccc([N+](=O)[O-])c1` (centres unmarked) [Benidipine] as the molecule, how does the IC50 [2, 8] read?
A: 104 nM

Q: For `Cc1cccc(C)c1NC(=O)CN1CCN(CCCC(c2ccc(F)cc2)c2ccc(F)cc2)CC1` [lidoflazine], which IC50 [2, 8] is on record?
A: 710 nM

Q: With `CCOC(=O)C1=C(C)NC(C)=C(C(=O)OCC)C1c1ccccc1/C=C/C(=O)OC(C)(C)C` [Lacidipine] as the molecule, how does the IC50 [2, 8] read?
A: 453 nM

Q: With `COC(=O)C1=C(C)NC(C)=C(C(=O)OCCN(C)Cc2ccccc2)C1c1cccc([N+](=O)[O-])c1` (centres unmarked) [Nicardipine] as the molecule, how does the IC50 [2, 8] read?
A: 290 nM

Q: What does the source list for `COc1ccc([C@@H]2Sc3ccccc3N(CCN(C)C)C(=O)[C@@H]2OC(C)=O)cc1` [diltiazem]?
A: IC50 ([4]; n = 4, read-out: IC50 positive control, benzothiazepine site binding): 42.7 ± 6.8 nM; IC50 [2, 9]: 27100 nM

Q: With `COC(=O)C1=C(C#N)NC(C)=C(C(=O)OC(C)C)C1c1cccc([N+](=O)[O-])c1` (centres unmarked) [Nilvadipine] as the molecule, how does the IC50 [2, 8] read?
A: 28 nM

Q: `COC(=O)C1=C(C)NC(C)=C([N+](=O)[O-])C1c1ccccc1C(F)(F)F` (centres unmarked) [Bay K8644] was tested. Which EC50 ([5]; Vhold -50 mV, Vtest -20 mV, read-out: EC50, Bay K8644 concentration dependence (patch clamp)) did it give?
A: 40.6 nM

Q: And the EC50 ([2]; holding [K+] 20 mM, read-out: EC50, activation of LTCCs (calcium flux))?
A: 204 nM

Q: `COC(=O)C1=C(C)NC(C)=C(C(=O)OC(C)C)C1c1cccc2nonc12` (centres unmarked) [Isradipine] was tested. Which IC50 [2, 8] did it give?
A: 8 nM

Q: Which results are given for `CN1CCC(=C2c3ccccc3C=Cc3ccccc32)CC1` [Cyproheptadine]?
A: % block of LTCC currents ([5]; 3 µM compound, -50/-20 mV, 300 nM Bay K8644): 75.2 ± 9.1%; inhibition at 3 µM [6]: 52.3 ± 6.1%

Q: For `Fc1ccc(C(OCCN2CCN(CCCc3ccccc3)CC2)c2ccc(F)cc2)cc1` [GBR 12909], which IC50 [2, 8] is on record?
A: 680 nM

Q: How did the “max % inhibition of LTCC currents” value [5, 10] turn out when `O=C(Nc1ccc([N+](=O)[O-])cc1Cl)c1cc(Cl)ccc1O` [Niclosamide] was run?
A: full efficacy

Q: And the “max % inhibition of LTCC currents” value ([5]; Vhold/Vtest -50/-20 mV, 300 nM Bay K8644, listed as niclosamide)?
A: 100%

Q: What about the IC50 [5, 11] of the same molecule?
A: 183 ± 28.2 nM

Q: What about the “20–80% rise time” value ([5]; at -20 mV, in presence of 200 nM compound) of the same molecule?
A: 16.1 ± 3.5 ms

Q: And the “Current remaining after 400 ms of depolarization, % of the peak” value ([5]; depolarization to -20 mV, 200 nM compound)?
A: 41.9 ± 7.5%

Q: What about the inhibition at 0.1 µM [6] of the same molecule?
A: 80.6 ± 4.9%

Q: What about the Ki ([3]; rat cortical homogenates) of the same molecule?
A: > 30000 nM

Q: And the Ki ([1]; rat cortical homogenates)?
A: > 30000 nM

Q: And the Ki ([4]; rat cortical homogenates)?
A: > 30000 nM

Q: What about the IC50 ([2]; PW library screen hit confirmation, 1.1 µM Bay K8644, holding [K+] 20 mM, listed as niclosamide, read-out: FLIPR IC50 Rat cortical culture) of the same molecule?
A: 79.5 ± 12.8 nM

Q: And the IC50 [2, 8]?
A: 80 nM

Q: What about the “maximal % inhibition of LTCC-mediated calcium flux” value ([2]; cortical cultures, n = 3) of the same molecule?
A: 100%

Q: Which results are given for `COCCOC(=O)C1=C(C)NC(C)=C(C(=O)OC(C)C)C1c1cccc([N+](=O)[O-])c1` (centres unmarked) [Nimodipine]?
A: Block of high [K+]-evoked calcium fluorescent response [7]: partially; Block of high [K+]-evoked calcium fluorescent response ([7]; listed as nimodipine): partially blocked; Decrease of potency of inhibition by Bay K ([5]; IC50 with 300 nM Bay K vs without, -50/-20 mV): 16.7 fold; max % inhibition (fraction of sensitive current) ([5]; Vhold/Vtest -50/0 mV, control (no Bay K)): 85.4 ± 3.7%; max % inhibition (fraction of sensitive current) ([5]; Vhold/Vtest -50/0 mV, control (no Bay K), listed as nimodipine): 85%; IC50 ([5]; Vhold/Vtest -50/0 mV, control (no Bay K), read-out: IC50, patch clamp current): 28.3 ± 6.5 nM; max % inhibition of LTCC currents [5, 10]: 99.1 ± 1.1%; max % inhibition of LTCC currents ([5]; Vhold/Vtest -50/-20 mV, 300 nM Bay K8644, listed as nimodipine): 99%; IC50 ([5]; Vhold/Vtest -50/-20 mV, 300 nM Bay K8644, listed as nimodipine, read-out: IC50, LTCC currents): 415 nM; IC50 [5, 11]: 401 ± 21.8 nM; max % inhibition (fraction of sensitive current) ([5]; Vhold/Vtest -50/-20 mV, control (no Bay K)): 96.1 ± 0.8%; max % inhibition (fraction of sensitive current) ([5]; Vhold/Vtest -50/-20 mV, control (no Bay K), listed as nimodipine): 96%; IC50 ([5]; Vhold/Vtest -50/-20 mV, control (no Bay K), read-out: IC50, patch clamp current): 24.8 nM; max % inhibition (fraction of sensitive current) ([5]; Vhold/Vtest -90/0 mV, control (no Bay K)): 75%; IC50 ([5]; Vhold/Vtest -90/0 mV, control (no Bay K), read-out: IC50, patch clamp current): 4800 nM; IC50 [2, 9]: 142 nM; Block of Bay K8644-evoked calcium fluorescent response ([2]; 1.1 µM Bay K8644, holding [K+] 20 mM): completely; Block of Bay K8644-evoked calcium fluorescent response ([2]; 1.1 µM Bay K8644, holding [K+] 20 mM, listed as nimodipine): completely blocked; IC50 [2, 8]: 110 nM
